From patent publication US20060100243A1 (priority 2004, published 2006)
“Also recorded” adds a separate entry of the source. Where two headings read alike, the source gives them in different places.

What was measured:
[1] = target: T1, recombinant human dopamine transporter (Homo sapiens, UniProt Q01959); assay: [125I]RTI-55 binding, dopamine transporter in HEK 293 cells; details: for Ki: HEK 293 cells; for potency at binding to the dopamine transporter and blocking dopamine reuptake: in words, compared with MPH / other samples
T1 construct: expressed in transfected cells

[2] = target: T1, recombinant human dopamine transporter; assay: dopamine reuptake inhibition in HEK 293 cells; assay type: cell-based; details: for IC50: HEK 293 cells; for selectivity for the dopamine transporter over the norepinephrine transporter: in words, from binding and reuptake values; for NE/DA REUPTAKE: ratio of NE/DA reuptake IC50, selectivity for dopamine over norepinephrine transporter
[3] = target: T2, recombinant human serotonin transporter (Homo sapiens, UniProt P31645); assay: biochemical; assay type: binding
T2 construct: expressed in transfected cells

[4] = target: T2, recombinant human serotonin transporter; assay: serotonin (5HT) reuptake inhibition in HEK 293 cells; assay type: cell-based
[5] = target: T3, recombinant human norepinephrine transporter (Homo sapiens, UniProt P23975); assay: biochemical; assay type: binding
T3 construct: expressed in transfected cells

[6] = target: T3, recombinant human norepinephrine transporter; assay: cell-based
[7] = DOPAMINE [I125]-RTI-55 BINDING (Ki), RS/SR racemates table
[8] = DOPAMINE DA REUPTAKE (IC50), RS/SR racemates table
[9] = RS/SR racemates table, HEK 293 cells, read-out: SEROTONIN [I125]-RTI-55 BINDING (Ki)
[10] = SEROTONIN 5HT REUPTAKE (IC50), RS/SR racemates table, HEK 293 cells
[11] = NOREPINEPHRINE [I125]-RTI-55 BINDING (Ki)
[12] = DOPAMINE [I125]-RTI-55 BINDING (Ki), RR/SS racemates table
[13] = DOPAMINE DA REUPTAKE (IC50), RR/SS racemates table
[14] = RR/SS racemates table, HEK 293 cells, read-out: SEROTONIN [I125]-RTI-55 BINDING (Ki)
[15] = RS/SR racemates table, read-out: DOPAMINE [I125]-RTI-55 BINDING (Ki)
[16] = RS/SR racemates table, read-out: DOPAMINE DA REUPTAKE (IC50)
[17] = RS/SR racemates table, HEK 293 cells, read-out: NOREPINEPHRINE [I125]-RTI-55 BINDING (Ki)
[18] = RS/SR racemates table, HEK 293 cells, read-out: NOREPINEPHRINE NE REUPTAKE (IC50)
[19] = RR/SS racemates table, read-out: DOPAMINE [I125]-RTI-55 BINDING (Ki)
[20] = RR/SS racemates table, read-out: DOPAMINE DA REUPTAKE (IC50)
[21] = RR/SS racemates table, HEK 293 cells, read-out: NOREPINEPHRINE [I125]-RTI-55 BINDING (Ki)
[22] = RR/SS racemates table, HEK 293 cells, read-out: NOREPINEPHRINE NE REUPTAKE (IC50)
[23] = SEROTONIN [I125]-RTI-55 BINDING (Ki)
[24] = SEROTONIN 5HT REUPTAKE (IC50), RR/SS racemates table, HEK 293 cells
[25] = RR/SS racemates table, HEK 293 cells, read-out: SEROTONIN 5HT REUPTAKE (IC50)

T1 sequence (Q01959 whole entry): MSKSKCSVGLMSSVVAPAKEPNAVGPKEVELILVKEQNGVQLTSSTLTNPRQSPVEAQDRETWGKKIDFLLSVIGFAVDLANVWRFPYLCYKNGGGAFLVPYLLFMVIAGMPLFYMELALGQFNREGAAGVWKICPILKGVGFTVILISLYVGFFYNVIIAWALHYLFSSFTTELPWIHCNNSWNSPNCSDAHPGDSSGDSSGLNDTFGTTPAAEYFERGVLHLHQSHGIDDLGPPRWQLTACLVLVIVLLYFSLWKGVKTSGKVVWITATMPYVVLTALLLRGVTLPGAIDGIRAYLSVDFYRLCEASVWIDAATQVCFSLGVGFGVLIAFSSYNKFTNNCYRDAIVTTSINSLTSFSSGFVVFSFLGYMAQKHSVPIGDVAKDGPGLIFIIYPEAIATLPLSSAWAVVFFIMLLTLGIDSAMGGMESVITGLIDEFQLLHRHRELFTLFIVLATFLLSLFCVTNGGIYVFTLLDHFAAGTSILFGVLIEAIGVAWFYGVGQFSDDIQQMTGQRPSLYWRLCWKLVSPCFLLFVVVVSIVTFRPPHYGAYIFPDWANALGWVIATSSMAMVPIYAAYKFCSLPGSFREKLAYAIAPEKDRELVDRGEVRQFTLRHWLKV
T2 sequence (P31645 whole entry): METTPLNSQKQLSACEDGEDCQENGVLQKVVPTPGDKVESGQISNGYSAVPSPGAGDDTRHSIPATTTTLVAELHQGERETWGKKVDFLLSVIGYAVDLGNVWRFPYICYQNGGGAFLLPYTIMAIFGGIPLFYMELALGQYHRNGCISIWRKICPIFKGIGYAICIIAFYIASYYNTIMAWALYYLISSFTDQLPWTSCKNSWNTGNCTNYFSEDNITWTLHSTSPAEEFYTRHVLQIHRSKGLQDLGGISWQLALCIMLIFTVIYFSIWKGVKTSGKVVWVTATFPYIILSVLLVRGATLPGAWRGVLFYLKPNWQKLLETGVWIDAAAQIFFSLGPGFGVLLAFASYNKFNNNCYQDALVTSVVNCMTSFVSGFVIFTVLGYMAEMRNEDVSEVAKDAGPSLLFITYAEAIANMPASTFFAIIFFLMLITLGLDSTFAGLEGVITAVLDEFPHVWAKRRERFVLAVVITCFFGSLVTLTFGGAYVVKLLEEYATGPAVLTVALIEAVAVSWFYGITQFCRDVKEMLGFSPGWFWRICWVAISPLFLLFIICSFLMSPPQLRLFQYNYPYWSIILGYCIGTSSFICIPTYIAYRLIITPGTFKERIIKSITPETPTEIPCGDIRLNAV
T3 sequence (P23975 whole entry): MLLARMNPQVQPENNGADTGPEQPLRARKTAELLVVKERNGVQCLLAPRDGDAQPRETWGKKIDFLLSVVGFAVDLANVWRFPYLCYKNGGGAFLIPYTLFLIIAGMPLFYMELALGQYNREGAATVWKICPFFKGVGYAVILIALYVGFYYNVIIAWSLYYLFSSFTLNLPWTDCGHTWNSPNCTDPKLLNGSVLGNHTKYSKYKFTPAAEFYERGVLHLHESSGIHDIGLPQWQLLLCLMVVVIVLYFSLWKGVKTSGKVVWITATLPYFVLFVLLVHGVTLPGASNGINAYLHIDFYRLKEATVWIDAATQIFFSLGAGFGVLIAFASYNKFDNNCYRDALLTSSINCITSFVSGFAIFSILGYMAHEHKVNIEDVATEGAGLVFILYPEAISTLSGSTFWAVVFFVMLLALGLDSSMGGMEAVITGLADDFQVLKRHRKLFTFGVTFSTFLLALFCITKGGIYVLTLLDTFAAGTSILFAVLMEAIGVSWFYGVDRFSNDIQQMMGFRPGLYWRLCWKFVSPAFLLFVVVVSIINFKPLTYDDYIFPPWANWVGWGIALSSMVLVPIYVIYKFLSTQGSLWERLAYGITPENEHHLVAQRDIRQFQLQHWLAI

Row | SMILES | Ki [1, 7] [nM] | IC50 [2, 8] [nM] | Ki [5, 11] [µM] | IC50 ([6]; NORE[…] REUPTAKE (IC50)) [nM] | Ki [1, 12] [nM] | IC50 [2, 13] [nM] | NE/DA REUPTAKE [2] | Ki [3, 23] [nM] | also measured
1 | CCCC(c1ccc(Cl)cc1)C1CCCCN1 (racemic) [EE] | 380 ± 40 | 450 ± 60 | 1.4 ± 0.4 | 200 ± 50 | – | – | – | – | Ki [3, 9]: 3200 ± 1100 nM; IC50 [4, 10]: 1.3 ± 0.007 µM
2 | CC(C)(C)CC(c1ccc(Cl)cc1)C1CCCCN1 (racemic) [FF] | 600 ± 40 | 670 ± 260 | – | 730 ± 250 | – | – | – | – | Ki [3, 9]: 3500 ± 1000 nM; IC50 [4, 10]: 1.8 ± 0.6 µM
3 | CC(C)(C)CC(c1ccc(Cl)cc1)C1CCCCN1 (racemic) [F] | – | – | 1.4 ± 0.4 | 520 ± 110 | 120 ± 40 | 60 ± 2 | 8.7 | – | selectivity for the dopamine transporter over the norepinephrine transporter [2]: enhanced selectivity; Ki [3, 14]: 3900 ± 500 nM
4 | Clc1ccc(C(CC2CCCC2)C2CCCCN2)cc1 (racemic) [LL] | – | – | – | – | – | – | – | – | Ki [1, 15]: 310 ± 80 nM; IC50 [2, 16]: 180 ± 20 nM; Ki [5, 17]: 2.6 ± 0.8 µM; IC50 [6, 18]: 730 ± 230 nM
5 | Clc1ccc(C(CC2CCCC2)C2CCCCN2)cc1 (racemic) [L] | – | – | – | – | – | – | – | – | Ki [1, 19]: 9.4 ± 1.5 nM; IC50 [2, 20]: 21 ± 1 nM; Ki [5, 21]: 1.7 ± 0.6 µM; IC50 [6, 22]: 310 ± 40 nM
6 | CC(C)CC(c1ccc(C(C)C)cc1)C1CCCCN1 (racemic) [PP] | – | – | 3.2 ± 0.6 | – | – | – | – | 1700 ± 500 | IC50 [4, 10]: 1.7 ± 0.1 µM
7 | CC(C)CC(c1ccc(C(C)C)cc1)C1CCCCN1 (racemic) [P] | – | – | 2.5 ± 0.6 | 7100 ± 1800 | 3300 ± 600 | 4000 ± 400 | 1.8 | 3300 ± 600 | IC50 [4, 24]: 4.7 ± 0.7 µM
8 | CC(C)CC(c1ccc(Cl)cc1)C1CCCCN1 (racemic) [Sample DD] | – | – | – | – | – | – | – | – | Ki [1, 15]: 170 ± 50 nM; potency at binding to the dopamine transporter and blocking dopamine reuptake [1]: inactivity; IC50 [2, 16]: 380 ± 130 nM; Ki [5, 17]: 4.5 ± 1.5 µM; IC50 [6, 18]: 750 ± 170 nM
9 | CCCC(c1ccc(Cl)cc1)C1CCCCN1 (racemic) [Sample E] | – | – | – | – | – | – | 6.8 | – | Ki [1, 19]: 11 ± 3 nM; potency at binding to the dopamine transporter and blocking dopamine reuptake [1]: enhanced potency; also recorded: most potent; IC50 [2, 20]: 7.4 ± 0.4 nM; selectivity for the dopamine transporter over the norepinephrine transporter [2]: enhanced selectivity; Ki [3, 14]: 2700 ± 600 nM; IC50 [4, 25]: 2.9 ± 1.1 µM; Ki [5, 21]: 0.2 ± 0.08 µM; IC50 [6, 22]: 50 ± 15 nM
10 | CC(C)CC(c1ccc(Cl)c(Cl)c1)C1CCCCN1 (racemic) [Sample NN] | – | – | – | – | – | – | – | – | Ki [1, 15]: 31 ± 11 nM; potency at binding to the dopamine transporter and blocking dopamine reuptake [1]: considerably more potent; also recorded: most potent; IC50 [2, 16]: 13 ± 3 nM; Ki [3, 9]: 450 ± 40 nM; IC50 ([4]; RS/SR racemates table, HEK 293 cells, read-out: SEROTONIN 5HT REUPTAKE (IC50)): 0.29 ± 0.06 µM; Ki [5, 17]: 0.12 ± 0.03 µM; IC50 [6, 18]: 19 ± 3 nM
11 | CC(C)CC(c1ccc(Cl)c(Cl)c1)C1CCCCN1 (racemic) [Sample N] | – | – | – | – | – | – | 1.6 | – | Ki [1, 19]: 1 ± 0.5 nM; potency at binding to the dopamine transporter and blocking dopamine reuptake [1]: enhanced potency; also recorded: most potent; IC50 [2, 20]: 5.5 ± 1.3 nM; Ki [3, 14]: 1600 ± 100 nM; IC50 [4, 25]: 1.1 ± 0.3 µM; Ki [5, 21]: 0.025 ± 0.009 µM; IC50 [6, 22]: 9 ± 1 nM
12 | COC(=O)C(c1ccc(Cl)cc1)C1CCCCN1 (single isomer, unassigned) [AA] | 2000 ± 600 | 2700 ± 1000 | – | – | – | – | – | 5900 ± 200 | IC50 ([4]; SEROTONIN 5HT REUPTAKE (IC50), RS/SR racemates table, in μM): > 10 µM; IC50 [6, 18]: 1400 ± 400 nM
13 | COC(=O)C(c1ccc(Cl)cc1)C1CCCCN1 (single isomer, unassigned) [A] | – | – | – | – | 25 ± 8 | 11 ± 2 | 1.0 | 6000 ± 100 | Ki [5, 21]: 0.11 ± 0.04 µM; IC50 [6, 22]: 11 ± 3 nM
14 | CCC(c1ccc(Cl)cc1)C1CCCCN1 (single isomer, unassigned) [BB] | 3500 ± 1000 | 2200 ± 300 | – | – | – | – | – | 5700 ± 800 | IC50 [4, 10]: 2 ± 0.6 µM; Ki ([5]; RS/SR racemates table, in μM, read-out: NOREPINEPHRINE [I125]-RTI-55 BINDING (Ki)): > 10 µM
15 | CCC(c1ccc(Cl)cc1)C1CCCCN1 (single isomer, unassigned) [B] | – | – | – | – | 37 ± 10 | 23 ± 5 | 9.1 | 7800 ± 800 | selectivity for the dopamine transporter over the norepinephrine transporter [2]: enhanced selectivity; IC50 [4, 24]: 2.4 ± 0.4 µM; Ki [5, 21]: 0.36 ± 0.06 µM; IC50 [6, 22]: 210 ± 30 nM
16 | CC(C)C(c1ccc(Cl)cc1)C1CCCCN1 (single isomer, unassigned) [CC] | 900 ± 320 | 990 ± 280 | > 10 | – | – | – | – | > 10000 | –
17 | CC(C)C(c1ccc(Cl)cc1)C1CCCCN1 (single isomer, unassigned) [C] | – | – | 0.81 ± 0.17 | 51 ± 20 | 46 ± 16 | 32 ± 6 | 1.6 | 5300 ± 1300 | IC50 [4, 24]: 3.3 ± 0.4 µM
18 | CCCCC(c1ccc(Cl)cc1)C1CCCCN1 (single isomer, unassigned) [GG] | 290 ± 70 | 170 ± 40 | – | – | – | – | – | – | Ki ([5]; NOREPINEPHRINE [I125]-RTI-55 BINDING (Ki), RS/SR racemates table, HEK 293 cells): 1.6 ± 0.3 µM; IC50 [6, 18]: 180 ± 160 nM
19 | CCCCC(c1ccc(Cl)cc1)C1CCCCN1 (single isomer, unassigned) [G] | – | – | – | – | 7.8 ± 1.1 | 8.2 ± 2.1 | – | – | potency at binding to the dopamine transporter and blocking dopamine reuptake [1]: enhanced potency; also recorded: most potent; Ki ([5]; NOREPINEPHRINE [I125]-RTI-55 BINDING (Ki), RR/SS racemates table, HEK 293 cells): 0.23 ± 0.03 µM; IC50 [6, 22]: 26 ± 7 nM
20 | Clc1ccc(C(CC2CCCCC2)C2CCCCN2)cc1 (single isomer, unassigned) [HH] | 260 ± 30 | 410 ± 60 | 4.3 ± 0.2 | 1700 ± 600 | – | – | – | – | Ki [3, 9]: 3700 ± 500 nM; IC50 [4, 10]: 6.4 ± 1.3 µM
21 | Clc1ccc(C(CC2CCCCC2)C2CCCCN2)cc1 (single isomer, unassigned) [H] | – | – | 4.2 ± 0.2 | 940 ± 140 | 130 ± 40 | 230 ± 70 | 4.1 | – | Ki [3, 14]: 900 ± 400 nM; IC50 [4, 24]: 1 ± 0.2 µM
22 | Clc1ccc(C(CCc2ccccc2)C2CCCCN2)cc1 (single isomer, unassigned) [II] | 700 ± 90 | 420 ± 140 | 2.4 ± 0.7 | 610 ± 150 | – | – | – | 1840 ± 70 | IC50 [4, 10]: 2.1 ± 0.9 µM
23 | Clc1ccc(C(C2CCCC2)C2CCCCN2)cc1 (single isomer, unassigned) [KK] | 690 ± 140 | 240 ± 30 | – | – | – | – | – | – | Ki [3, 9]: 4600 ± 700 nM; IC50 [4, 10]: 4.2 ± 0.9 µM
24 | Clc1ccc(C(C2CCCC2)C2CCCCN2)cc1 (single isomer, unassigned) [K] | – | – | – | – | 36 ± 10 | 27 ± 8.3 | – | – | Ki [3, 14]: 5700 ± 1100 nM; IC50 [4, 24]: 4.6 ± 0.8 µM
